Tests used:
rats = test: Rat tail immersion assay (noxious thermosensation, 55° C. water bath); format: in vivo; settings: rat, oral 100 μmol/kg, one hour post dosing, relative to vehicle
Description: Compounds were tested for their effects on noxious thermosensation using the tail immersion assay. Testing was performed one hour following oral administration of 100 μmol/kg of the compound in 10% ethanol/20% Tween-80/70% PEG-400 (2 mL/kg). Mophine (6 mg/kg) was administered interperitoneally (i.p.) using saline (2 mL/kg) as the vehicle. For testing, a circulating water bath was heated to 55° C. Thirty to sixty minutes post dosing, the rats were handled for a few seconds to calm them down and then cupped with their back against the testers hand at a slight angle with head facing away from tester. With rat in one hand and a 0.01 second stopwatch in the other hand, the tail was quickly immersed 6-8 cm in water bath or to a distance leaving 2-3 cm of tail out of water. The timer was started simultaneously. When the rat flinched or attempted withdrawal, timer was immediately stopped and the rat's tail was quickly removed from water bath. This response latency (in seconds) was recorded. Process was repeated 3 times with 3-4 minutes between readings for a final average.
For a given example, a percent increase in the average response latency (in seconds) for tail withdrawal relative to a vehicle control was determined % increase=[(tc−tv)/tv]×100%
tc=response time (in seconds) with oral dosing of compounds
tv=response time (in seconds) with oral dosing of vehicle
The % increases in tail withdrawal latency relative to vehicle control are divided into the following categories: […]

[1] = target: T1, human TRPV1 receptor (hTRPV1) (Homo sapiens (Human), UniProt Q8NER1); test: Acid activation assay (pH 5.0, FLIPR intracellular Ca2+); format: cell-based; settings: Table 2; 37.5 μM compound; percentage of maximal pH 5.0-induced response
T1 sequence (Q8NER1 whole entry): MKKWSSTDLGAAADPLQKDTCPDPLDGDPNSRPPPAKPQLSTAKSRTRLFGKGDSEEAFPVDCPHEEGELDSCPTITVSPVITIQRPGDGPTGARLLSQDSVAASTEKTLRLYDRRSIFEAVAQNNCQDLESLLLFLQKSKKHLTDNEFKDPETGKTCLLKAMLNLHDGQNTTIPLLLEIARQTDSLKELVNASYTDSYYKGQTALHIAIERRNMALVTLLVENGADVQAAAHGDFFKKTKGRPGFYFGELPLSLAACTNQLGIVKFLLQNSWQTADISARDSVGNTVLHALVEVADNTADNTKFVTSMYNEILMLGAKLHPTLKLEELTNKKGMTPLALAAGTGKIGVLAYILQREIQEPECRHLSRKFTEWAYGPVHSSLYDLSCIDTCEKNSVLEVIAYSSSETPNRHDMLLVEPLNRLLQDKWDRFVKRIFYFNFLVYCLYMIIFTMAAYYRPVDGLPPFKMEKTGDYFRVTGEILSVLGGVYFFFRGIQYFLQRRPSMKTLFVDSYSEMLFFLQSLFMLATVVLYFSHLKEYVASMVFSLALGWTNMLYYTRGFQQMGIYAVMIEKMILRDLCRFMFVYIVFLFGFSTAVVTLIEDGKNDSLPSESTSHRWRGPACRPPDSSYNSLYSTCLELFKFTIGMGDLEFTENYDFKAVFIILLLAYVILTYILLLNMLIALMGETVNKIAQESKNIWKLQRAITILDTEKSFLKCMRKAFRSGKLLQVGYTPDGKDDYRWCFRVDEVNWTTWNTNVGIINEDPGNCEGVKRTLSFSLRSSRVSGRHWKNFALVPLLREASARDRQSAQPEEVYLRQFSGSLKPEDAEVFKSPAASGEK

[2] = target: T1, human TRPV1 receptor (hTRPV1); test: Capsaicin activation assay (FLIPR intracellular Ca2+); format: cell-based; settings: Table 2; capsaicin-induced intracellular Ca2+ increase; read-out: human TRPV1 capsaicin IC50
Procedure, shortened: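 Recombinant HEK293 cells stably expressing hTRPV1, Calcium-4 dye loaded 90–120 min at room temperature, were preincubated with compound (12-point, one-third-log) for 3 min before capsaicin challenge. Peak FLIPR fluorescence minus baseline was normalised to capsaicin control response; IC50 from four-parameter logistic fit.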

SMILES: CC(=O)Nc1nc2c(Oc3cc(-c4ccc(C(F)(F)F)cc4)ncn3)cccc2s1 [A, reference compound]
- % Increase in Tail Withdrawal Latency (rats): +++ (greater than or equal to 25% increase)
- human TRPV1 H+ (max % remain) [1]: 10%

SMILES: CC(C)(C)c1ccc(Nc2ncnc3cc(-c4ncccc4C(F)(F)F)ccc23)cc1 [B, reference compound]
- % Increase in Tail Withdrawal Latency (rats): +++ (greater than or equal to 25% increase)
- human TRPV1 H+ (max % remain) [1]: 1%

SMILES: CC(C)(C)c1ccc2c(c1)CC[C@H]2NC(=O)Nc1cccc2[nH]cnc12 [C, reference compound]
- % Increase in Tail Withdrawal Latency (rats): +++ (greater than or equal to 25% increase)
- human TRPV1 H+ (max % remain) [1]: 1%
- IC50 [2]: 0.035 µM

SMILES: Cc1nc(Nc2cccc3c2C[C@H](O)CC3)oc1-c1ccc(C(F)(F)F)cc1 [D, reference compound]
- % Increase in Tail Withdrawal Latency (rats): +++ (greater than or equal to 25% increase)
- human TRPV1 H+ (max % remain) [1]: 3%

SMILES: Cc1cccnc1N1CC=C(C(=O)Nc2ccc(S(=O)(=O)C(F)(F)F)cc2)CC1 [E, reference compound]
- % Increase in Tail Withdrawal Latency (rats): +++ (greater than or equal to 25% increase)
- human TRPV1 H+ (max % remain) [1]: 2%
